The test system of the assay is E. multilocularis metacestodes. The assay can be described thus: PGI-assay: drug-induced damage on in vitro cultured metacestodes (Pathogen Box screening cascade and EC50). Conditions: for PGI release, % of the Tx-100 control, 5d / PGI release, % of the Tx-100 control, 12d: 10 µM, singlets; for PGI release, % of the Tx-100 control, 5d / PGI release, % of Tx-100 control, average, 5d: 5 days of incubation; for PGI release, % of the Tx-100 control, 12d / PGI release, % of Tx-100 control, average, 12d: 12 days of incubation. Format: cell-based, Echinococcus multilocularis.

[1] abbreviates: confirmatory screening at 10 µM in triplicates, values as % of Tx-100 control.

As to `CCC(Sc1nc2ccccc2o1)C(=O)Nc1nnc(C)s1` (stereo not drawn) [MMV611037], the “PGI release, % of the Tx-100 control, 5d” value is listed as -0.81% and the “PGI release, % of the Tx-100 control, 12d” value is -1.11%.

As to `O=C(NCCN1CCCC1)c1cc(NCCN2CCOCC2)nc2ccc(Cl)cc12` [MMV634140], the “PGI release, % of the Tx-100 control, 5d” value was 0.01% and the “PGI release, % of the Tx-100 control, 12d” value is on record as -0.0759%.

As to `CN1CCCC1CCO[C@](C)(c1ccccc1)c1ccc(Cl)cc1` (stereo partly drawn) [MMV637229], the “PGI release, % of the Tx-100 control, 5d” value came to 4.53% and the “PGI release, % of the Tx-100 control, 12d” value is 10.67%.

On to `O=C(Nc1ccc2c(c1)B(O)OC2)c1ccccc1C(F)(F)F` [MMV652003], for which the “PGI release, % of the Tx-100 control, 5d” value is on record as 1.72% and the “PGI release, % of the Tx-100 control, 12d” value is 7.32%.

In the case of `Cc1nc(-c2ccccn2)nc(N(C)CCc2ccccc2)c1Cl` [MMV658988], the “PGI release, % of the Tx-100 control, 5d” value turned out to be 22.86% and the “PGI release, % of the Tx-100 control, 12d” value is listed as 30.08%. In addition, under setting [1], the “PGI release, % of Tx-100 control, average, 5d” value (from here on “PGI release, % … average, 5d”) is 4.97% and the “PGI release, % of Tx-100 control, average, 12d” value (“PGI release, % … average, 12d” for short) is given as 10.18%.

Regarding `Cc1nc(-c2ccccn2)nc(NCCc2ccc(S(C)(=O)=O)cc2)c1Cl` [MMV658993], the “PGI release, % of the Tx-100 control, 5d” value was -0.19% and the “PGI release, % of the Tx-100 control, 12d” value is 1.18%.

Regarding `Cc1nc(-c2ccccn2)nc(N2CCC(Cc3ccccc3)C2)c1Cl` (stereo not drawn) [MMV659004], the “PGI release, % of the Tx-100 control, 5d” value was 11.75% and the “PGI release, % of the Tx-100 control, 12d” value is listed as 58.47%. Moreover, under setting [1], the “PGI release, % … average, 5d” value is listed as 2.44% and the “PGI release, % … average, 12d” value amounted to 11.08%.

Turning to `FC(F)(F)c1cc(NCCc2ccccc2)nc(-c2ccccn2)n1` [MMV659010], the “PGI release, % of the Tx-100 control, 5d” value turned out to be 0.61% and the “PGI release, % of the Tx-100 control, 12d” value came out at 3.66%.

In the case of `Brc1cncc(-c2cc(NCCCn3ccnc3)nc(-c3ccccc3)n2)c1` [MMV661713], the “PGI release, % of the Tx-100 control, 5d” value is reported as -3.38% and the “PGI release, % of the Tx-100 control, 12d” value was -0.86%.

Take `Clc1cccc(C(c2ccc(CN3CCNCC3)cc2)n2ccnc2)c1` (stereo not drawn) [MMV663250]: the “PGI release, % of the Tx-100 control, 5d” value amounted to 0.31% and the “PGI release, % of the Tx-100 control, 12d” value is recorded as -0.31%.

As for `O=C(NCCN1CCCC1)c1cc(NCCCCN2CCC(F)(F)CC2)nc2ccc(Cl)cc12` [MMV667494], the “PGI release, % of the Tx-100 control, 5d” value is -0.60% and the “PGI release, % of the Tx-100 control, 12d” value is recorded as -1.11%.

Consider `Nc1ncc(-c2ccc(C(F)(F)F)nc2)cc1-c1ccc(C(F)(F)F)nc1` [MMV668727], for which the “PGI release, % of the Tx-100 control, 5d” value is on record as -0.66% and the “PGI release, % of the Tx-100 control, 12d” value is reported as -0.51%.

With `COc1ccc(OC)c(NCc2ccc3nc(N)nc(N)c3c2Cl)c1` [MMV675968], the “PGI release, % of the Tx-100 control, 5d” value is -0.10% and the “PGI release, % of the Tx-100 control, 12d” value turned out to be 8.05%.

Turning to `CC(C)(C)c1ccc(N[C@@H]2CCCC[C@H]2NC(=O)c2ccco2)cc1` [MMV675969], the “PGI release, % of the Tx-100 control, 5d” value stood at 1.02% and the “PGI release, % of the Tx-100 control, 12d” value is given as -2.49%.

In the case of `COc1ccc(-c2nn(C(C)C)c3ncnc(N)c23)cc1OC` [MMV675993], the “PGI release, % of the Tx-100 control, 5d” value is reported as -5.16% and the “PGI release, % of the Tx-100 control, 12d” value is -3.42%.

Take `Clc1ccc(-n2cc(COc3ccnc4ccccc34)nn2)cc1` [MMV675994]: the “PGI release, % of the Tx-100 control, 5d” value was -6.67% and the “PGI release, % of the Tx-100 control, 12d” value was found to be 46.84%. Under “1 µM, triplicates”, the “PGI release, % … average, 5d” value is -4.24% and the “PGI release, % … average, 12d” value is recorded as -12.79%. Besides, the “activity in the screen at 10 μM (confirmed in triplicates, >20% relative PGI release)” value (10 μM, 5 and 12 days) is on record as “active”. In addition, under setting [1], the “PGI release, % … average, 5d” value was 26.02% and the “PGI release, % … average, 12d” value is recorded as 73.87%.

For `COc1ccc(N(CCc2cccc(C)n2)C(C)=O)cc1` [MMV675995], the “PGI release, % of the Tx-100 control, 5d” value was 1.72% and the “PGI release, % of the Tx-100 control, 12d” value is given as 1.78%.

On to `COc1ccc(N(CCc2cccc(C)n2)C(=O)C2CCCCC2)cc1` [MMV675996], for which the “PGI release, % of the Tx-100 control, 5d” value amounted to 0.13% and the “PGI release, % of the Tx-100 control, 12d” value was -0.16%.

These data come from paper PMC6216040, “Repurposing of an old drug: In vitro and in vivo efficacies of buparvaquone against Echinococcus multilocularis” (International Journal for Parasitology: Drugs and Drug …, 2018).
